Laboratory results as given in ChEMBL document CHEMBL3994632, “Selenoesters and selenoanhydrides as novel multidrug resistance reversing agents: A confirmation study in a colon cancer MDR cell line” (Bioorg Med Chem Lett, 2017).

Columns and labels:
[1] = molecular target: ATP-dependent translocase ABCB1 (Homo sapiens, UniProt P08183); experiment: Inhibition of human MDR1 transfected in mouse T lymphoma cells assessed as rhodamine-123 accumulation measured as fluorescence activity ratio quotient at 2 uM preincubated for 10 mins followed by rhodamine-123 addition measured after 20 mins by flow cytometry relative to verapamil; assay type: cell-based; set-up: scale not given: the % may be the effect or the level left
Sequence of ATP-dependent translocase ABCB1 (P08183 whole entry): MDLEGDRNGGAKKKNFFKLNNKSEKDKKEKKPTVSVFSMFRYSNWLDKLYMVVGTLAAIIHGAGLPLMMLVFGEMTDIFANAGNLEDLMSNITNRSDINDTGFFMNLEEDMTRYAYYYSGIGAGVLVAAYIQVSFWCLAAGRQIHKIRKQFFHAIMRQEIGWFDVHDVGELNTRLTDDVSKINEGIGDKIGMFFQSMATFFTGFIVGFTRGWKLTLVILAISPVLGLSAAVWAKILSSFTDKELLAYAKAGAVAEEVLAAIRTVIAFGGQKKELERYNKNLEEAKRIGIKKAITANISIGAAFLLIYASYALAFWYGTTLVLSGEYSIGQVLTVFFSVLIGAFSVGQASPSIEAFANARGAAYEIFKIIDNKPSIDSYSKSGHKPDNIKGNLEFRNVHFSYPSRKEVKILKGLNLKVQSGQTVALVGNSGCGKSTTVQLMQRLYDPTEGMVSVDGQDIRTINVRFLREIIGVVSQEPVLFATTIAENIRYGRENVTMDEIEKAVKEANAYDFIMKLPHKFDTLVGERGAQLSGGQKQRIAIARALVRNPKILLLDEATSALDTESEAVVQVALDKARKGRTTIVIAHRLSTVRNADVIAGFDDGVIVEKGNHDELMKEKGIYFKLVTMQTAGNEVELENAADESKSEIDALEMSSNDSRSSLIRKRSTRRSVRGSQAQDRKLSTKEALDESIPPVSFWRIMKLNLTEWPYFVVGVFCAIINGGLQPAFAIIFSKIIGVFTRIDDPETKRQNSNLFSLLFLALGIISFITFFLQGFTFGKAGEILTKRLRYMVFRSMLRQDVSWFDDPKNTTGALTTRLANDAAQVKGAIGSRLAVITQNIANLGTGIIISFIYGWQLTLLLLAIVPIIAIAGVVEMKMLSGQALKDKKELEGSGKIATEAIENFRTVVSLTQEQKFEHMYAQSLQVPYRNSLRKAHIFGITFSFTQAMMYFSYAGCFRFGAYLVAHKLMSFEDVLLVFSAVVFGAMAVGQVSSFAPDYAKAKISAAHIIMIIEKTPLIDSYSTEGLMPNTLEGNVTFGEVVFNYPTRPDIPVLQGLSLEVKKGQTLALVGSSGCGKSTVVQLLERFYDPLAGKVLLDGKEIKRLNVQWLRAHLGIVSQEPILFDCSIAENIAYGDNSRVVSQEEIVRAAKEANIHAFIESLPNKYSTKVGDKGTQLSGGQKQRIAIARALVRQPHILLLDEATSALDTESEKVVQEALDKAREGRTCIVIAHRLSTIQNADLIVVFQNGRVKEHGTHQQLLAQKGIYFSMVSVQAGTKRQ

MRC5 = experiment: Cytotoxicity against human MRC5 cells after 24 hrs by MTT assay; assay type: ADME, cell-based; details: MRC5, 24 h
COLO 320 [2] = experiment: Induction of apoptosis in human COLO320 cells at 2 uM after 24 hrs by Annexin V-FITC/propidium iodide staining based flow cytometry relative to M627; assay type: functional
[3] = Selectivity index, ratio of IC50 for human MRC5 cells to IC50 for multidrug resistant human COLO320 cells; assay type: functional
COLO 320 [4] = experiment: Cytotoxicity against multidrug resistant human COLO320 cells after 24 hrs by MTT assay; assay type: functional, cell-based; details: COLO 320, 24 h
COLO 205 = experiment: Cytotoxicity against doxorubicin-sensitive human COLO205 cells after 24 hrs by MTT assay; assay type: functional, cell-based; details: COLO 205, 24 h
[5] = Selectivity index, ratio of IC50 for doxorubicin-sensitive human COLO205 cells to IC50 for multidrug resistant human COLO320 cells; assay type: functional
[6] = Selectivity index, ratio of IC50 for human MRC5 cells to IC50 for doxorubicin-sensitive human COLO205 cells; assay type: functional
COLO 320 [7] = experiment: Induction of apoptosis in human COLO320 cells assessed as early apoptotic cells at 20 uM after 24 hrs by Annexin V-FITC/propidium iodide staining based flow cytometry (reference value: 20.3%); assay type: functional
COLO 320 [8] = experiment: Induction of apoptosis in human COLO320 cells assessed as cell death at 20 uM after 24 hrs by Annexin V-FITC/propidium iodide staining based flow cytometry (reference value: 4.75%); assay type: functional
COLO 320 [9] = experiment: Induction of apoptosis in human COLO320 cells assessed as late apoptotic/necrotic cells at 20 uM after 24 hrs by Annexin V-FITC/propidium iodide staining based flow cytometry (reference value: 9.93%); assay type: functional

| Structure (SMILES) | Activity [1] | IC50 (MRC5) | Activity (COLO 320 [2]) | Ratio IC50 [3] | IC50 (COLO 320 [4]) | IC50 (COLO 205) | Ratio IC50 [5] | Ratio IC50 [6] | Activity (COLO 320 [7]) | Activity (COLO 320 [8]) | Activity (COLO 320 [9]) |
| --- | --- | --- | --- | --- | --- | --- | --- | --- | --- | --- | --- |
| CC(C)(C)C(=O)C[Se]C(=O)c1ccc(Cl)cc1 | 34 to 217% | 8.1 µM | 80.3% | 8.4 | 0.96 µM | 1.63 µM | 1.7 | 5 | – | – | – |
| C[Se]C(=O)c1ccc(C(=O)[Se]C)s1 | – | 4.26 µM | 30.4% | <=0.04 | > 100 µM | > 100 µM | – | <=0.04 | – | – | – |
| C[Se]C(=O)c1cccc(C(=O)[Se]C)n1 | – | 17.9 µM | 36.9% | <=0.18 | > 100 µM | > 100 µM | – | <=0.18 | – | – | – |
| C[Se]C(=O)c1cccc(C(=O)[Se]C)c1 | – | 28.4 µM | 36.3% | 2.3 | 12.5 µM | > 100 µM | >=8 | <=0.28 | – | – | – |
| C[Se]C(=O)c1ccc(C(=O)[Se]C)cc1 | – | 61.5 µM | 36.9% | <=0.62 | > 100 µM | > 100 µM | – | <=0.62 | – | – | – |
| COc1cc(OC)cc(C(=O)[Se]CC(=O)C(C)(C)C)c1 | 46 to 228% | 5.04 µM | 88.7% | 14.4 | 0.35 µM | 1.19 µM | 3.4 | 4.2 | – | – | – |
| O=C(C[Se]C(=O)c1ccccc1)Oc1ccccc1 | – | > 100 µM | 43% | >=1.9 | 53.7 µM | > 100 µM | >=1.9 | – | – | – | – |
| N.N#CS | – | > 100 µM | 9.55% | – | > 100 µM | > 100 µM | – | – | – | – | – |
| CC(=O)C[Se]C(=O)c1ccc(Cl)cc1 | – | 5.35 µM | 87.7% | 9.7 | 0.55 µM | 5.48 µM | 10 | 0.98 | – | – | – |
| COC(=O)C[Se]C(=O)c1ccc(Cl)cc1 | – | 33.4 µM | 43.4% | <=0.33 | > 100 µM | > 100 µM | – | <=0.33 | – | – | – |
| N#C[O-].[K+] | – | > 100 µM | 7.28% | – | > 100 µM | > 100 µM | – | – | – | – | – |
| c1ccc2c(c1)Nc1c(ccc3ccccc13)S2 | – | – | – | – | – | – | – | – | 58.5% | 2.91% | 22% |
| O=C1OC(=O)c2ccccc21 [PHTHALIC ANHYDRIDE] | – | > 100 µM | 6.06% | – | > 100 µM | > 100 µM | – | – | – | – | – |
| N#C[Se-].[K+] | – | > 100 µM | 6.98% | – | > 100 µM | > 100 µM | – | – | – | – | – |
| NC(=O)C[Se]C(=O)c1ccccc1 | – | 76.6 µM | 37.3% | <=0.77 | > 100 µM | > 100 µM | – | <=0.77 | – | – | – |
| O=C1[Se]C(=O)c2ccccc21 | – | > 100 µM | 88.4% | >=1.6 | 63.9 µM | > 100 µM | >=1.6 | – | – | – | – |
